From ChEMBL document CHEMBL1909046, “DrugMatrix in vitro pharmacology data” come the findings set out here.

Assay [1] is described as follows: DRUGMATRIX: Phosphodiesterase PDE4 enzyme inhibition (substrate: [3H]cAMP + cAMP). As to conditions: u-937; Not Active = under 50% inhibition at 10 µM.
Assay [2] deals with Mitogen-activated protein kinase 1 (Homo sapiens, UniProt P28482). The assay can be described thus: DRUGMATRIX: Protein Serine/Threonine Kinase, ERK2 enzyme inhibition (substrate: Myelin Basic Protein). Also on record: species or system Escherichia coli. As to conditions: Not Active = under 50% inhibition at 10 µM.
For assay [3], the target named is Prostaglandin G/H synthase 1 (Homo sapiens, UniProt P23219). The assay can be described thus: biochemical. Format: tissue-based, Platelet. As to conditions: platelet.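 Note: inhibition of COX-1 enzyme activity, with arachidonic acid supplied as substrate; in other assays of this panel Not Active means under 50% inhibition at 10 µM.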
A further assay has as its target D(3) dopamine receptor (Homo sapiens, UniProt P35462). In words: DRUGMATRIX: Dopamine D3 radioligand binding (ligand: [3H] Spiperone). The class given is cell membranes, CHO, Membrane. As to conditions: cho.
The target of a further assay is T1, Interstitial collagenase (Homo sapiens, UniProt P03956).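 Note: MMP-1 enzyme inhibition assay using a peptide substrate; in other assays of this panel Not Active means under 50% inhibition at 10 µM.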
T1 sequence (P03956 whole entry): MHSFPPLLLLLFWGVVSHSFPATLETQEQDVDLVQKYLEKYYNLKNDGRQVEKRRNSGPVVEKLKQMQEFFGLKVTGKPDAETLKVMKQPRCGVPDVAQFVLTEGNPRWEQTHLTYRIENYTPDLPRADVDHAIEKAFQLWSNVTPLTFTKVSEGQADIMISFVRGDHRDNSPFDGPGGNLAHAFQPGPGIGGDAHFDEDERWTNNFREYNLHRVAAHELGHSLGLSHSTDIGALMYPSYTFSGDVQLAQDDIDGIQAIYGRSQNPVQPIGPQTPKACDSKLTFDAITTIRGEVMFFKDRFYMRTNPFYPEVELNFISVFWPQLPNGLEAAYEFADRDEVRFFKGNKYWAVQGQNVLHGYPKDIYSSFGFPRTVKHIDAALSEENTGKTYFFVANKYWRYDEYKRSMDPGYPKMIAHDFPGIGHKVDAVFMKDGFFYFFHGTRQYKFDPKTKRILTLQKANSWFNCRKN
The class given is tissue-based, Rheumatoid synovial fibroblasts.

For assay [4], the target named is T2, 3-hydroxy-3-methylglutaryl-coenzyme A reductase (Homo sapiens, UniProt P04035).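 Note: enzyme inhibition assay of HMG-CoA reductase using radiolabeled [14C]HMG-CoA as substrate; in other assays of this panel Not Active means under 50% inhibition at 10 µM.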
T2 sequence (P04035 whole entry): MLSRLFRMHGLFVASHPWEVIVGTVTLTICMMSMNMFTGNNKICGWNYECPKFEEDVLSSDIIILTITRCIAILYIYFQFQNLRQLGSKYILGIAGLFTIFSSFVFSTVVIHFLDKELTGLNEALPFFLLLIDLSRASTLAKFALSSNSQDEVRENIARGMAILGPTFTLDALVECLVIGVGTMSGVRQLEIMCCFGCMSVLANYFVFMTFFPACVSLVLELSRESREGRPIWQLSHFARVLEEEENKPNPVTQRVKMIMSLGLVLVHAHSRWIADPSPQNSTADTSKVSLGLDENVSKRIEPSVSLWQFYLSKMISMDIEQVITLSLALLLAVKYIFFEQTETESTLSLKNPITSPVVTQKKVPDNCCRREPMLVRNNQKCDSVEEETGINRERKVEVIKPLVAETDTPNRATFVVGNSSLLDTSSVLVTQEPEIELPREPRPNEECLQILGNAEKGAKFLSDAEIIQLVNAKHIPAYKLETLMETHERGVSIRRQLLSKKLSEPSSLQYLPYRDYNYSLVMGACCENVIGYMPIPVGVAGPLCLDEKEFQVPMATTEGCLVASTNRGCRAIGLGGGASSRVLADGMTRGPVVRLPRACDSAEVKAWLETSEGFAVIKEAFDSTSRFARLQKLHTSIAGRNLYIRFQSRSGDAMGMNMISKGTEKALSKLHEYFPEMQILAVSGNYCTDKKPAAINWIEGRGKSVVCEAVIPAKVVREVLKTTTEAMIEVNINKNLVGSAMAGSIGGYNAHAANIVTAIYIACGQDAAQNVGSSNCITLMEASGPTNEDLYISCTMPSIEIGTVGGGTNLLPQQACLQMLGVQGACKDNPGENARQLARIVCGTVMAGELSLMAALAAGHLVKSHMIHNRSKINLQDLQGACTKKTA
Also on record: species or system Escherichia coli.

In a further assay the target is T3, Adenosine receptor A1 (Homo sapiens, UniProt P30542).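 Note: radioligand binding assay at the adenosine A1 receptor, with DPCPX serving as the labelled ligand; in other assays of this panel Not Active means under 50% inhibition at 10 µM.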
T3 sequence (P30542 whole entry): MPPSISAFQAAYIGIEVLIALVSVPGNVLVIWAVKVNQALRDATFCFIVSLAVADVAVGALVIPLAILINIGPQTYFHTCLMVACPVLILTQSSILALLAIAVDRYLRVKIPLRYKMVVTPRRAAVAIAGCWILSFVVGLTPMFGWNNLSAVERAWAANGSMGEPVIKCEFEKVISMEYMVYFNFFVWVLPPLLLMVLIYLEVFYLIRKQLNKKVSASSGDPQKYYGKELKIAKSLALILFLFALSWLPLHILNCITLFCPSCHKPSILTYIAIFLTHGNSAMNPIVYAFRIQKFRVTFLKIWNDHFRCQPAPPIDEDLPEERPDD
The class given is cell membranes, CHO, Membrane. As to conditions: cho.

The target of assay [5] is T4, Alpha-1D adrenergic receptor (Homo sapiens, UniProt P25100). Note: in other assays of this panel Not Active means under 50% inhibition at 10 µM.
T4 sequence (P25100 whole entry): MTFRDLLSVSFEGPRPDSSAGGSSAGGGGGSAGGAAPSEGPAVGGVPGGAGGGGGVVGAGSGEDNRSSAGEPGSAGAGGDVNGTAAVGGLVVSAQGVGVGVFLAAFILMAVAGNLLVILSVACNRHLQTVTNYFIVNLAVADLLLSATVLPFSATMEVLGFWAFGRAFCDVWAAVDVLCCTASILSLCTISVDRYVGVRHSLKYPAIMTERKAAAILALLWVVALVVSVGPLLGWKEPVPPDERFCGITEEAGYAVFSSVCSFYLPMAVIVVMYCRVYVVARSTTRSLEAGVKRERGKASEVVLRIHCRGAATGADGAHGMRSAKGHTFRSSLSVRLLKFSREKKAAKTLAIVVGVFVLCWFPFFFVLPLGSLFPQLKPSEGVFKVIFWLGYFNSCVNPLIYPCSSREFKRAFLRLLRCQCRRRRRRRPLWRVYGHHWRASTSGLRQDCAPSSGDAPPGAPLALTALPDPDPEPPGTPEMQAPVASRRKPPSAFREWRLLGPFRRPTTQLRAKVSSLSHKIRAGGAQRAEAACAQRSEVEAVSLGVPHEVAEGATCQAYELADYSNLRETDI
Format: cell membranes, HEK293, Membrane. As to conditions: hek293.

The target of a further assay is Melanocortin receptor 3 (Homo sapiens, UniProt P41968). Format: cell membranes, Membrane. As to conditions: hek293. Note: in other assays of this panel Not Active means under 50% inhibition at 10 µM.
Assay [6] in a line: DRUGMATRIX: Calcium Channel Type L, Phenylalkylamine radioligand binding (ligand: [3H] (-)-Desmethoxyverapamil (D-888)). The class given is cell membranes, Rattus norvegicus, Wistar, Brain, Membrane. As to conditions: Not Active = under 50% inhibition at 10 µM.
Assay [7] in a line: DRUGMATRIX: Glutamate, NMDA, Agonism radioligand binding (ligand: [3H] CGP-39653). The class given is cell membranes, Rattus norvegicus, Wistar, Cerebral cortex, Membrane. As to conditions: Not Active = under 50% inhibition at 10 µM.
Assay [8] has as its target Platelet-activating factor receptor (Homo sapiens, UniProt P25105). In words: biochemical. The class given is tissue-based. As to conditions: platelet. Note: in other assays of this panel Not Active means under 50% inhibition at 10 µM.
A short description of assay [9]: DRUGMATRIX: Glutamate, NMDA, Phencyclidine radioligand binding (ligand: [3H] TCP). Format: cell membranes, Rattus norvegicus, Wistar, Cerebral cortex, Membrane. As to conditions: Not Active = under 50% inhibition at 10 µM.

Where a SMILES comes first, the peptide text is derived from it. Bridges are numbered along the chain shown (N, C = ends). [ ]: non-standard residue; d: D form. The star is where a group is joined. Ileψ(thiazoline)Cys = CC[C@H](C)[C@H](N)C1=N[C@H](C(=O)*)CS1; dOrn = NCCC[C@@H](N)C(=O)O

Mitogen-activated protein kinase 1, sequence (P28482 whole entry): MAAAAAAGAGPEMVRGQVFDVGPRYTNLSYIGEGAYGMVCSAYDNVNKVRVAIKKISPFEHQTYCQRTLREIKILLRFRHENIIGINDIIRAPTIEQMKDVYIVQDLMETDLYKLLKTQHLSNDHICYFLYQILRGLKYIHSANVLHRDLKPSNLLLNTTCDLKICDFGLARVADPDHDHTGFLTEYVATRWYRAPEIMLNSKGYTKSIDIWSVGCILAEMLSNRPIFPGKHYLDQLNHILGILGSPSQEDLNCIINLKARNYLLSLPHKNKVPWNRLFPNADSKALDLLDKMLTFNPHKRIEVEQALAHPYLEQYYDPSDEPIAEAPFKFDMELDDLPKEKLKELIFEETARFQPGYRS
Platelet-activating factor receptor, sequence (P25105 whole entry): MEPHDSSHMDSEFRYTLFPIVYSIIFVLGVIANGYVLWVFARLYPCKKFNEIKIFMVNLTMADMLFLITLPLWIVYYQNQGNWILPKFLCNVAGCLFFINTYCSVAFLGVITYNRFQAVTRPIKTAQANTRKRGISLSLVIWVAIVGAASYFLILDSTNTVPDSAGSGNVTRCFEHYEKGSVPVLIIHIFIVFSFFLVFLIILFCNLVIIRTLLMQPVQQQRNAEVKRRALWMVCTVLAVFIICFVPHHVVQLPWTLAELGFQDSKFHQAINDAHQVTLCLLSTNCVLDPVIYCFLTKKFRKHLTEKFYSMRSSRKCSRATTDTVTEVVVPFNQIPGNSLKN
Melanocortin receptor 3, sequence (P41968 whole entry): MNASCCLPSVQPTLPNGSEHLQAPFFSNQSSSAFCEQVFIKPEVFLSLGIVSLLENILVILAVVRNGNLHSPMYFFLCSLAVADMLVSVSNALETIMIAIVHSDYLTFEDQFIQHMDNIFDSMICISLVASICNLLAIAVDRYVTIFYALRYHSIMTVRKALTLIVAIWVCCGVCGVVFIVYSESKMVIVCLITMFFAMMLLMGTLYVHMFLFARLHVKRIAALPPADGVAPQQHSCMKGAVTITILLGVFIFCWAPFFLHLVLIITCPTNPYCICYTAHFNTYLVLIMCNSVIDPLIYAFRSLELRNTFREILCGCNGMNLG
D(3) dopamine receptor, sequence (P35462 whole entry): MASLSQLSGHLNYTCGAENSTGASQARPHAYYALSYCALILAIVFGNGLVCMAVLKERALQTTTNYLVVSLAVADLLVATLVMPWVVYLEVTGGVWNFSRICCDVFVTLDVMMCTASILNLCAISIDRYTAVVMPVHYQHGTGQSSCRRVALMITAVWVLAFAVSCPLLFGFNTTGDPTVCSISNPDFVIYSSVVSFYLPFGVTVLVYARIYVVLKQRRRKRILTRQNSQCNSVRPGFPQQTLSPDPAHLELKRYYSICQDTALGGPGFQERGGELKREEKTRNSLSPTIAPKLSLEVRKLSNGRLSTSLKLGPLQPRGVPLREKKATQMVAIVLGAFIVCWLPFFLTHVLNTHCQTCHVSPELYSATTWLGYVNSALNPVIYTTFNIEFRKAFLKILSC
Prostaglandin G/H synthase 1, sequence (P23219 whole entry): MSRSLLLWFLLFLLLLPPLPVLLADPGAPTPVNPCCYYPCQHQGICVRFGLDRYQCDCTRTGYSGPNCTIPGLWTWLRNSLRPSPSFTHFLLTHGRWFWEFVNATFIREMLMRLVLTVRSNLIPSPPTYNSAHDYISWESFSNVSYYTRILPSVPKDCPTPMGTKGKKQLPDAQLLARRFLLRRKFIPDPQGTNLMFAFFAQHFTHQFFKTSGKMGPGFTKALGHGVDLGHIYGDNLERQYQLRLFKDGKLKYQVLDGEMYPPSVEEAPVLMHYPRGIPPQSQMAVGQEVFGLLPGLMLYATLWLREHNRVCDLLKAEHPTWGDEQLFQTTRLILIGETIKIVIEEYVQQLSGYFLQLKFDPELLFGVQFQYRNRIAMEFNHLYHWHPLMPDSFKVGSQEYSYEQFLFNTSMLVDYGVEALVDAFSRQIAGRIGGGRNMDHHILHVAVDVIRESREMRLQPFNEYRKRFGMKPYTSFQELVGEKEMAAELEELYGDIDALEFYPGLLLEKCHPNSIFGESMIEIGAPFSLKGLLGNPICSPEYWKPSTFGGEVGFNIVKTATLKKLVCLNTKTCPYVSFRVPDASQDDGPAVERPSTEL

In general, IC50 refers to the point on the concentration scale where inhibition reaches its midpoint. A word on the Ki: it is a measure of affinity in units of concentration, obtained from inhibition or displacement. Consider `Fc1ccc([C@@H]2CCNC[C@H]2COc2ccc3c(c2)OCO3)cc1` [PAROXETINE], for which the IC50 result (in assay [1]; in assay [2]; in assay [3]; on D(3) dopamine receptor; at Interstitial collagenase; in assay [4]) was “Not Active” each time. The IC50 entry on Adenosine receptor A1 is “Not Active”; in assay [5] it was “Not Active”; at Melanocortin receptor 3 it was “Not Active”; in assay [6] (read-out: IC50), 747 nM; in assay [7] it was “Not Active”; in assay [8], “Not Active”. The IC50 entry in [9] is “Not Active”. The Ki result was “Not Active” in [1], 726 nM in assay [6] (read-out: Ki), “Not Active” in [7] and “Not Active” in [9].

Consider `COC1=CC(=O)C[C@@H](C)[C@]12Oc1c(Cl)c(OC)cc(OC)c1C2=O` [GRISEOFULVIN], for which the IC50 result (in [1]; in assay [2]; in assay [3]; on D(3) dopamine receptor; at Interstitial collagenase; in assay [4]) was “Not Active” throughout. Further, the IC50 result (against Adenosine receptor A1; in [5]; on Melanocortin receptor 3; in [6]; in assay [7]; in assay [8]) was “Not Active” in each case. In addition, the half-maximal inhibitory concentration (IC50) entry in assay [9] is reported as “Not Active”. In addition, the Ki result in assay [1], in assay [6], in [7] and in assay [9] was “Not Active” each time.

Turning to `CC[C@H](C)[C@H](N)C1=N[C@H](C(=O)N[C@@H](CC(C)C)C(=O)N[C@H](CCC(=O)O)C(=O)N[C@H](C(=O)N[C@H]2CCCCNC(=O)[C@H](CC(N)=O)NC(=O)[C@@H](CC(=O)O)NC(=O)[C@H](Cc3cnc[nH]3)NC(=O)[C@@H](Cc3ccccc3)NC(=O)[C@H]([C@@H](C)CC)NC(=O)[C@@H](CCCN)NC2=O)[C@@H](C)CC)CS1` [BACITRACIN] ({Ileψ(thiazoline)Cys}-L[dE]IK[dOrn]I[dF]H[dD]N; lactam 4-C), the IC50 result (in assay [1]; in assay [2]; in assay [3]; on D(3) dopamine receptor; against Interstitial collagenase; in assay [4]) was “Not Active” each time. Moreover, the IC50 result (against Adenosine receptor A1; in [5]; against Melanocortin receptor 3; in assay [6]; in assay [7]; in assay [8]) was “Not Active” each time. For the same compound, the IC50 entry in [9] is “Not Active”. In addition, the Ki result in assay [1], in assay [6], in assay [7] and in assay [9] was “Not Active” throughout.

Turning to `CCCC[C@@H](CC)COC(=O)c1ccccc1C(=O)OC[C@@H](CC)CCCC` [BIS(2-ETHYLHEXYL)PHTHALATE], the concentration for half-maximal inhibition (IC50) result (in assay [1]; in assay [2]; in [3]; on D(3) dopamine receptor; against Interstitial collagenase; in [4]) was “Not Active” each time. Also, the IC50 entry (at Adenosine receptor A1; in assay [5]; at Melanocortin receptor 3; in [6]; in assay [7]; in assay [8]) was “Not Active” each time. In addition, the IC50 result in assay [9] is listed as “Not Active”. Further, the inhibition constant Ki result in [1], in assay [6], in assay [7] and in assay [9] was “Not Active” each time.

In the case of `CN1C(C(=O)Nc2ccccn2)=C(O)c2ccccc2S1(=O)=O` [PIROXICAM], the 50% inhibitory concentration (IC50) result (in assay [1]; in [2]; on D(3) dopamine receptor; at Interstitial collagenase; in assay [4]; against Adenosine receptor A1) was “Not Active” throughout. Moreover, the IC50 entry (in [5]; at Melanocortin receptor 3; in [6]; in assay [7]; in assay [8]; in [9]) was “Not Active” throughout. Moreover, the Ki entry in [1], in assay [6], in assay [7] and in assay [9] was “Not Active” in each case.

As for `CCc1cccc2c3c([nH]c12)C(CC)(CC(=O)O)OCC3` (stereo not given) [ETODOLAC], the IC50 result (in [1]; in [2]; on D(3) dopamine receptor; against Interstitial collagenase; in assay [4]; against Adenosine receptor A1) was “Not Active” each time. In addition, the IC50 result (in assay [5]; on Melanocortin receptor 3; in assay [6]; in [7]; in [8]; in [9]) was “Not Active” in each case. Further, the inhibition constant (Ki) result in [1], in assay [6], in assay [7] and in [9] was “Not Active” in each case.
